According to PubChem BioAssay (NCI):
Where “and” joins values, the source holds several entries; their conditions need not be identical. Equal values may be shown once.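 Dose response: 5 concentrations. Exposure: 48 h. Format: 96-well plates. Endpoint: linear interpolation; highest concentration if not reached. GI50 marks 50% less growth. TGI is the concentration that stops growth completely.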

Test system: MDA-MB-468 breast
Experiment: growth of human tumour cells (NCI), 48 h

SMILES | GI50 | TGI
CN(C)C/C=C/C(=O)Nc1cc2c(Nc3ccc(F)c(Cl)c3)ncnc2cc1O[C@H]1CCOC1 | < 0.01 µM and 0.00112 µM | 0.01 µM and 0.0067 µM
O=C1c2cc3c(cc2-c2c1c1cc(Cl)c(Cl)cc1c(=O)n2C[C@H](O)CO)OCO3 | < 0.01 µM | 0.0305 µM
O=C(NNc1ccccc1)C(=O)NNc1ccccc1 | > 100 µM | > 100 µM
C=COC(=O)N[C@H]1CCc2cc(OC)c(OC)c(OC)c2-c2ccc(SC)c(=O)cc21 | < 0.01 µM | > 100 µM
CSc1nc(NC2OC(COC(C)=O)C(OC(C)=O)C(OC(C)=O)C2OC(C)=O)c(N=CC=Nc2c(NC3OC(COC(C)=O)C(OC(C)=O)C(OC(C)=O)C3OC(C)=O)nc(SC)n(C)c2=O)c(=O)n1C (stereo not drawn) | 39.4 µM | 50 µM
COc1cccc2c1C(=O)c1c(O)c3c(c(O)c1C2=O)C[C@@](O)(/C(C)=N/NC(=O)c1ccc(Cl)cc1)C[C@@H]3OC1CC(N)C(O)C(C)O1 (stereo partly drawn) | 0.174 µM | 0.495 µM
BrCc1cccc(C[P+](c2ccccc2)(c2ccccc2)c2ccccc2)c1 | 2.25 µM | 8.36 µM
COc1cc(C2CC(c3cccc(Nc4ccncc4)c3)=NN2c2ccc(Cl)cc2)cc(OC)c1OC (stereo not drawn) | 1.63 µM | 3.45 µM
CCc1ccc(/C=C/c2ccc(O)c3ncccc23)[n+](C)c1 | 0.539 µM | > 36.5 µM
CN(C)c1ccc(N=Nc2ccccn2)c(O)c1 | 0.204 µM | 0.912 µM
Cn1cc(-c2csc(-c3c[nH]c4ccc(Br)cc34)n2)c2cnccc21 | 1.68 µM | 3.56 µM
Nc1ncc(-c2ccc3ncnc(N4CCc5cc(F)c(Cl)cc54)c3c2)cc1CO | 0.236 µM | 0.933 µM
O=S(=O)(Nc1ccc(Cl)cc1Cl)c1ccc(-c2cnc(C3CC3)o2)cc1 | 0.339 µM | 2.9 µM
COc1ccc(-c2nsc3c2NC(=O)CC3c2cccc(OC)c2)cc1 (stereo not drawn) | 0.395 µM | 3.97 µM
Cc1ccc2c(C3C(C#N)=C(N)Oc4cc5ccccc5cc43)cc(=O)oc2c1 (stereo not drawn) | 0.925 µM | 67.1 µM
COC(=O)c1ccc2c(c1)/C(=C\c1cc(Br)c(O)c(Br)c1)C(=O)N2 | 6.09 µM | > 22 µM
CC1CCN(C(=O)OCc2nc3nc(Cl)nc(N4CCOCC4)c3[nH]2)CC1 | 0.715 µM | 2.37 µM
Cc1cc(N(CCCNc2ccnc3cc(Cl)ccc23)Cc2ccc3c(c2)OCO3)nc(N2CCOCC2)n1 | 0.202 µM | 0.562 µM
C[C@H](Nc1cc(Cl)nc2c1cnn2[C@@H]1O[C@H](COP(=O)(O)CP(=O)(O)O)[C@@H](O)[C@H]1O)c1ccccc1F | > 100 µM | > 100 µM
O=C1CCC/C=C\C[C@H]2C=CC(=O)/C2=C/C[C@H](C/C=C\CC(F)(F)F)O1 | 0.521 µM | 2.51 µM
Cn1c(Nc2ccc(C(F)(F)F)cc2)nc2cc(Oc3ccnc(-c4ncc(C(F)(F)F)[nH]4)c3)ccc21 | 0.127 µM | 11.4 µM
Nc1c(C(=O)c2ccccc2)cnn1-c1ccc(F)cc1 | > 25 µM | > 25 µM
CS(=O)(=O)Nc1cc(-c2ccc3ncnc(Nc4c(Cl)ccc5c4OCO5)c3c2)cnc1Cl | 0.128 µM | 0.454 µM
COc1cc(/C=C\c2cc(OC)c(OC)c(OC)c2)cc(N/C=C\C(=O)c2cc(OC)c(OC)c(OC)c2)c1OC | 1.88 µM | 6.34 µM
CCN(Cc1ccc(F)cc1)c1ccc(CO)c(Br)c1 | 0.0224 µM | 0.0608 µM

SMILES | GI50 | TGI
Cc1ccc(Nc2oc(-c3ccccc3)nc2[P+](c2ccccc2)(c2ccccc2)c2ccccc2)cc1 | 0.266 µM | 0.895 µM
O=C1c2cccc3cccc(c23)C(=O)N1CCCCCN1CCN(CCCCCOc2ccc(-c3nc4ccc(N5CCOCC5)cc4[nH]3)cc2)CC1 | 20.3 µM | 34.6 µM
Clc1nc(Cl)nc(Nc2cccc3ccccc23)n1 | 52.1 µM | > 100 µM
CN1CC[C@@H](c2c(O)cc(O)c3c(=O)cc(-c4ccc(C(F)(F)F)cc4Cl)oc23)[C@@H]1CO | 12.2 µM | 29.6 µM
CC1(C)N=C(N)N=C(N)N1c1ccc(CCCCc2ccc(Cl)c(S(=O)(=O)F)c2)c(Cl)c1 | 2.51 µM | 16.4 µM
CN(C)CCC(=O)C(=Cc1ccc(O)cc1)C(=O)CCN(C)C | 26.8 µM | 75.2 µM
CCOC(=O)c1c(-c2ccc(OC)cc2)c(C#N)c2c(C#N)c(N)nn2c1N | 2.08 µM | 6.86 µM
CC(C(=O)O)c1cccc(Oc2ccccc2)c1 (stereo not drawn) | > 100 µM | > 100 µM
COc1ccc(C(O)(CCC(C)C)C(CN2CCOCC2)c2ccc(Cl)cc2)cc1 (stereo not drawn) | 7.43 µM | 23.4 µM
O=[P@@]1(c2ccccc2)O[C@H](COCc2ccccc2)[C@@H](OCc2ccccc2)[C@H](OCc2ccccc2)[C@H]1NCc1ccccc1 | 3.06 µM | 12.6 µM
Cn1c(=O)c(Oc2ccc(F)cc2)cc2cnc(NC3CCOCC3)nc21 | > 25 µM | > 25 µM
CC(C)OC(=O)[C@H](C)NP(=O)(OC[C@H]1O[C@@H](n2ccc(=O)[nH]c2=O)[C@](C)(F)[C@@H]1O)Oc1ccccc1 (stereo partly drawn) | > 100 µM | > 100 µM
COc1ccc(-c2cc(/C=C/C(=O)c3ccc(OC)c(OC)c3)[nH]n2)cc1 | 1.22 µM | 2.94 µM
O=[N+]([O-])c1ccc(CI)cc1 | 1.71 µM | 4.09 µM
COc1ccc(-c2nnc(N3CCN(C(=O)CN4CCN(c5ccccc5)CC4)CC3)nc2-c2ccc(OC)cc2)cc1 | 8.31 µM | > 100 µM
CN(C)C(=S)Sc1ccc([N+](=O)[O-])cc1[N+](=O)[O-] | 2.12 µM | 5.78 µM
COc1ccccc1Nc1ncc(-c2ccccc2)o1 | 3.02 µM | > 25 µM
Nc1ccn(C2OC(CO)C(O)C2O)c(=O)n1 (stereo not drawn) | > 61.1 µM | > 100 µM
COc1cc(/C=C/C(=O)c2cccc(-n3cc(-c4ccc(Cl)cc4)[nH]c3=O)c2)ccc1O | 3.12 µM | 19.2 µM
NCCc1cc(O)c(O)cc1O | 20.7 µM | 97.8 µM
CC(C)=CCc1cc(O)cc2c1OC(C=C(C)C)C1=C2C(=O)C2=C(C1=O)S(=O)(=O)CCN2 (stereo not drawn) | 2.68 µM | 8.24 µM
C#Cc1nc(Nc2cc(C)[nH]n2)c2ccccc2n1 | 0.184 µM | 0.45 µM
O=[N+]([O-])c1cccc2ccc(N/N=C/c3ccccc3O)nc12 | 0.676 µM | > 100 µM
Cc1nc2cc(Nc3nc(Nc4ccc(F)cc4)nc(-c4cccs4)n3)ccc2n1Cc1ccccc1 | 3.62 µM | 35.4 µM
